# Patent publication US10813920B2, “Drug for treating corneal endothelium by promoting cell proliferation or inhibiting cell damage” (THE DOSHISHA, priority 2013, dated 2020)
# Counter-ions that a name gives are not always drawn. Residues, ends and D or L forms follow the SMILES beside them. *: point of attachment. Cbz = O=C(OCc1ccccc1)*; CH2F = FC*
# Legend:
# [1] = tested on: cultured monkey corneal endothelial cells; assay: p38 MAPK activation induces apoptosis: Western blot in cultured monkey corneal endothelial cells; format: cell-based; settings: Western blot after 9 hours
# Procedure: 1×10^5 cultured monkey corneal endothelial cells were seeded on a 12-well plate coated with an FNC Coating Mix and cultured for about 5 days until reaching confluence under the condition of 5% CO2 at 37° C. The medium used was Dulbecco's Modified Eagle Medium (Gibco, 12320-032), 10% FBS, 1% Penicillin-Streptomycin (nacalai tesque, 26252-94).
# As acclimation treatment, Z-VAD (OMe)-FMK (Wako Pure Chemical Industries, Ltd. 269-02071) was then added at a concentration of 10 μM and the cells were incubated for 16 hours under the condition of 5% CO2 at 37° C. For the Control group and anisomysin group, a solvent of a reagent Dimethyl Sulfoxide (DMSO) (Dimethyl Sulfoxide, Sterile-filtered; nacalai tesque, 13408-64) was added. The medium used was Gibco DMEM, 1% P/S. The cellular supernatant was then removed, and anisomysin (Wako Pure Chemical Industries Ltd., 017-16861) was added to the anisomysin group and the anisomysin+Z-VAD-FMK group at a concentration of 10 μM. 10 μM of Z-VAD was added with anisomysin to the anisomysin+Z-VAD-FMK group. DMSO was added to the groups to which Z-VAD-FMK was not added. The cells were then cultured for 9 hours. The cellular form was observed under a phase difference microscope. A picture was taken after 9 hours.
# After 9 hours, cell proteins were collected. The amount of protein expression was compared by Western blot. Anti-caspase 3 antibodies (cell signaling, 9662S), anti-p38 MAPK antibodies (cell signaling, #9212), and anti-pp38 MAPK antibodies (cell signaling, #4631S) were used as the antibodies. Further, anti-GAPDH antibodies (MBL, 3H12) were used as the internal standard.
# [2] = water; hydrochloride salt; cited from earlier work
smiles,measurement,setting,value
COC(=O)C[C@H](NC(=O)[C@H](C)NC(=O)[C@@H](NC(=O)OCc1ccccc1)C(C)C)C(=O)CF [Z-VAD-FMK] (Cbz-Val-Ala-Asp(OMe)-CH2F),Caspase 3 activation induced by anisomycin,[1]; 10 μM Z-VAD-FMK with 10 μM anisomycin,suppressed
"COc1ccc(C[C@H]2NC[C@H](O)[C@@H]2OC(C)=O)cc1 [anisomysin, (2R,3R,4S)-2-[(4-methoxyphenyl)methyl]-3,4-pyrrolidinediol-3-acetate]",Phosphorylation of p38,[1]; 10 μM,observed
same,activation due to cleavage of caspase 3,[1]; 10 μM,observed
"C[S+]([O-])c1ccc(-c2nc(-c3ccncc3)c(-c3ccc(F)cc3)[nH]2)cc1 (stereo not shown) [SB203580 hydrochloride, 4-(4-fluorophenyl)-2-(4-methylsulfinylphenyl)-5-(4-pyridyl)-1H-imidazole]",water solubility,[2],water-soluble
